Experimental data: patent publication US8048869B2, “Pharmaceutical composition for use in hormone replacement therapy” (Pantarhei Bioscience B.V., priority 2001, dated 2011)

Tests used:
OVX-rats = assay: pQCT densitometry of proximal tibiae, ovariectomized aged rat osteoporosis model; type: in vivo; design: anti-resorptive activity compared with positive control EE: dose or concentration left out as unconfirmed; settings: po, 4 weeks; for Mean Total Bone Mineral Area / Mean Total Bone Mineral Content / Mean Total Bone Mineral Density / Mean Trabecular Bone Mineral Area / Mean Trabecular Bone Mineral Content / Mean Trabecular Bone Mineral Density: proximal tibiae
Procedure: The ovariectomized aged rat was used as a model for the human disease osteoporosis. This is an established animal model, recommended by the United States Food and Drug Administration (FDA), to evaluate and assess potential agents for osteoporosis prevention and therapy. The anti-resorptive efficacy of estetrol (E4) was tested by ex vivo measuring total and trabecular bone mineral density and bone strength after 4 weeks of treatment at necropsy. 17α-ethinyl-estradiol (EE) and vehicle (1% ethanol/arachidis oil) served as controls in this bioassay.
Three months old female Sprague-Dawley rats were either sham-operated (Sham) or ovariectomized (OVX) one day prior to commencement of the dosing study. Animals were anesthetized using a ketamine/xylazine anesthetic mixture and underwent a bilateral ovariectomy or were sham-treated. A section of hair on the dorsal surface was shaved and an incision made overlying the lumbar region of the spine. The skin was separated from the underlying fascia so that a second incision could be made through the abdominal musculature approximately caudal to the kidneys. The ovaries were then exteriorized and removed and the musculature was closed with a single suture. The skin incision was closed using surgical staples.
Ten animals per treatment group were orally dosed once per day for four consecutive weeks. […] Vehicle control was daily administered to one group of OVX-animals and sham-operated rats. After treatment, anesthetized rats were subjected to cardiac puncture and asphyxiated by CO2 inhalation. Tibiae and femura were removed, cleaned of soft-tissue and fixed and stored in 70% ethanol/saline at 4° C. (tibia) or saline at 4° C. (femura) until fuirther analysis.
Ex vivo peripheral Quantitative Computed Tomography (pQCT) was performed on the excised left tibiae using a Stratec XCT-RM and associated software (Stratec Medizintechnik GmbH, Pforzheim; Germany, software version 5.40). The scans were performed at 12% of the total length from the proximal end of the tibiae. The positions were verified using scout views and one 0.5-mm slice perpendicular to the long axis of the tibial shaft was acquired from each site. The scans were analyzed using a threshold for delineation of the external boundary. The total and trabecular bone mineral content, area and density at each site were determined. Furthermore, pQCT data for mean total bone mineral density are depicted in FIG. 1.

human ERα = target: T1, human ERα (Homo sapiens, UniProt P03372); assay: Competitive steroid binding assay, ERα; settings: from Ki values for human ERα and ERβ
T1 sequence (P03372 1-595): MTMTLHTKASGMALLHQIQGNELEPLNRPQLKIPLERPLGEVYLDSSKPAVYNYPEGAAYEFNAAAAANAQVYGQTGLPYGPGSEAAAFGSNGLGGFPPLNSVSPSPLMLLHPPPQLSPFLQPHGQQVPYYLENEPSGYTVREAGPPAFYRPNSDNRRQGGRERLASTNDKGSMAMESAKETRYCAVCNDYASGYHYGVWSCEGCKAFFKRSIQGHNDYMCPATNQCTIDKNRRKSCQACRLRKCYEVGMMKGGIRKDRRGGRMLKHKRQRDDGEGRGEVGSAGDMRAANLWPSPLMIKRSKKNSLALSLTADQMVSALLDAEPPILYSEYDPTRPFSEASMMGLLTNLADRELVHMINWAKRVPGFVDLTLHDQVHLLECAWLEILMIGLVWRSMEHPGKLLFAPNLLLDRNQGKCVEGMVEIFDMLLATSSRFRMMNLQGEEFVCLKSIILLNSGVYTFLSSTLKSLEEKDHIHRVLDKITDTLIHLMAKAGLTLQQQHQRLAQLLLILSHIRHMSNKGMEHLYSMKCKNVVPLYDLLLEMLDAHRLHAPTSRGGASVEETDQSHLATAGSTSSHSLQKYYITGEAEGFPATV

[1] = tested on: morphine-dependent ovariectomized (OVX) rat; assay: Morphine-dependent OVX rat hot flush model, naloxone-induced tail skin temperature rise; type: in vivo
Procedure: The morphine-dependent ovariectomized (OVX) rat was used as a model for postmenopausal hot flush. The potency of estetrol (E4) to prevent tail skin temperature rises, normally accompanied by a drop in core body temp arature, after naloxone-induced opiate withdrawel was tested. 17α-ethinyl-estradiol (EE) and vehicle. (hydroxy propyl-beta-cyclodextrin 20% wt/vol) served as controls in this bioassay.
The morphine-dependent ovariectomized (OVX) rat model has been proposed by several investigators (Katovich et al, 1986, Maturitas, 67-76; Merchenthaler et al. 1998, Maturitas, 307-316) as an animal model for the hot flush. During opiate withdrawal with the morphine antagonist naloxone, tail skin temperature (TST) rises and this rise is accompanied by a drop in core body temperature. In addition, the temperature changes are accompanied by surges in LH and a transient tachycardia. These events are similar in magnitude and temporal nature to those observed in the menopausal hot flush.
Three days prior to the commencement of dosing, animals were anesthetized using a ketamine/xylazine anesthetic mixture and underwent a bilateral ovariectomy. […]
For the hot flush manipulations the animals were placed in a test cage. […] The tail-skin temperature was recorded until it was stable and the animals were then injected with naloxone HCl (1 mg/kg). […]

Relative ERα/ERβ preference (human ERα): 400%
Structure (SMILES): C[C@]12CC[C@@H]3c4ccc(O)cc4CC[C@H]3[C@@H]1[C@@H](O)[C@@H](O)[C@@H]2O [E4, 1,3,5 (10)-estratrien-3,15α,16α,17β-tetrol]
Mean Total Bone Mineral Area (OVX-rats; 0.1 mg/kg/day): 14.41 mm^2
Mean Total Bone Mineral Content (OVX-rats; 0.1 mg/kg/day): 8.46 mg/mm
Mean Total Bone Mineral Density (OVX-rats; 0.1 mg/kg/day): 588.62 mg/mL
Mean Trabecular Bone Mineral Area (OVX-rats; 0.1 mg/kg/day): 6.48 mm^2
Mean Trabecular Bone Mineral Content (OVX-rats; 0.1 mg/kg/day): 0.96 mg/mm
Mean Trabecular Bone Mineral Density (OVX-rats; 0.1 mg/kg/day): 145.46 mg/mL
Mean Total Bone Mineral Area (OVX-rats; 0.5 mg/kg/day): 14.80 mm^2
Mean Total Bone Mineral Content (OVX-rats; 0.5 mg/kg/day): 9.74 mg/mm
Mean Total Bone Mineral Density (OVX-rats; 0.5 mg/kg/day): 660.57 mg/mL
Mean Trabecular Bone Mineral Area (OVX-rats; 0.5 mg/kg/day): 6.65 mm^2
Mean Trabecular Bone Mineral Content (OVX-rats; 0.5 mg/kg/day): 1.60 mg/mm
Mean Trabecular Bone Mineral Density (OVX-rats; 0.5 mg/kg/day): 243.31 mg/mL
anti-resorptive activity compared with positive control EE (OVX-rats; highest dose): equivalent to the effect seen with the positive control EE
suppressive response on TST compared with EE ([1]; po, 3.0 mg/kg/day (FIG. 3)): suppressive response similar to the potent oral estrogen, 17α-ethinyl estradiol (EE)
effect on naloxone-induced tail skin temperature (TST) ([1]; po, 0.3, 1.0 and 3.0 mg/kg/day (FIG. 3)): attenuated the TST
